From ChEMBL document CHEMBL1135740, “Design, synthesis, and activity of a novel series of factor Xa inhibitors: optimization of arylamidine groups” (J Med Chem, 2002)

Experiments:
Serine protease 1 = target: T1, Serine protease 1 (Bos taurus, UniProt P00760); experiment: Inhibitory constant against bovine trypsin for general specificity against serine proteases
T1 sequence (P00760 whole entry): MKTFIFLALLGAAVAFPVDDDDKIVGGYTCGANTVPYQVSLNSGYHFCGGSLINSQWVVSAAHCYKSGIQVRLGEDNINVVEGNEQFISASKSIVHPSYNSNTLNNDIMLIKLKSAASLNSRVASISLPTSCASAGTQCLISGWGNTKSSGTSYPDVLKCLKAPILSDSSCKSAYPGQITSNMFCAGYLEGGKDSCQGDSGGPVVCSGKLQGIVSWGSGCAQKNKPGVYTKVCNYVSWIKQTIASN

Prothrombin = Prothrombin (Homo sapiens, UniProt P00734); experiment: Inhibitory constant against human coagulation factor II (thrombin) for selectivity within coagulation cascade
Coagulation factor X = Coagulation factor X (Homo sapiens, UniProt P00742); experiment: Inhibitory constant against human coagulation factor Xa (fXa)
Sequence of Coagulation factor X (P00742 41-179 limits assumed): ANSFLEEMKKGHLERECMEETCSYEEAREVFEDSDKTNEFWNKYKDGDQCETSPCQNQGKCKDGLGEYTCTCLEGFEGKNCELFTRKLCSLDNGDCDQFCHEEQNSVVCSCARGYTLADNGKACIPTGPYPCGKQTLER
Sequence of Coagulation factor X (P00742 235-488 limits assumed): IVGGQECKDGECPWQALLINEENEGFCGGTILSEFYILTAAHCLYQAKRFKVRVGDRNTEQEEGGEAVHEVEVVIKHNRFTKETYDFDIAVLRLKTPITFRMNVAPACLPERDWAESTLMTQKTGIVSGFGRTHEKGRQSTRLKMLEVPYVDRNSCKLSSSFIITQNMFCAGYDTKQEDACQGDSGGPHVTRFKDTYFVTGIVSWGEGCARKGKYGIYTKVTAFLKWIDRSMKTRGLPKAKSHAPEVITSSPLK

Compound | Ki (Serine protease 1) [nM] | Ki (Prothrombin) [nM] | Ki (Coagulation factor X) [nM]
Cn1ccnc1-c1cccc(Oc2cc(C(=O)O)cc(Oc3cc(C(=N)N)ccc3O)n2)c1 | 650 |  | 
COc1cccc(Oc2nc(Oc3cccc(C(=N)N)c3)c(F)c(C)c2F)c1 |  | 1800 | 1350
Cc1c(F)c(Oc2cccc(C(=N)N)c2)nc(Oc2cccc(C(=O)Nc3ccccc3)c2)c1F |  | > 5000 | > 5000
COc1cc(C(=O)N(C)C)cc(Oc2nc(Oc3cccc(C(=N)N)c3)c(F)c(C)c2F)c1OC |  |  | > 5000
COc1cc(Oc2nc(Oc3cccc(C(=O)N(C)C)c3)c(F)c(C)c2F)c(O)c(C(=N)N)c1 | > 5000 | > 5000 | > 5000
Cc1c(F)c(Oc2cccc(C(=N)N)c2)nc(Oc2cccc(C(=O)N(C)Cc3ccccc3)c2)c1F |  |  | 2400
Cc1c(F)c(Oc2cccc(C(=N)N)c2)nc(Oc2cccc(C(=O)O)c2)c1F | > 5000 | > 5000 | 5000
COc1ccc(C(=N)N)cc1Oc1nc(Oc2cccc(N(C)C)c2)c(F)c(C)c1F |  |  | 1400
Cc1c(F)c(Oc2cccc(C(=N)N)c2)nc(Oc2cccc(C(=O)N(C)C)c2O)c1F |  |  | 4500
Cc1c(F)c(Oc2cccc(C(=N)N)c2)nc(Oc2cc(O)cc(C(=O)N(C)C)c2)c1F | 1900 | 740 | > 5000
Cc1c(F)c(Oc2cccc(NS(C)(=O)=O)c2)nc(Oc2cccc(C(=N)N)c2)c1F | 1900 | 4900 | 3800
Cc1ccc(N(C)C)cc1Oc1nc(Oc2cccc(C(=N)N)c2)c(F)c(C)c1F | > 5000 | > 5000 | > 5000
Cc1c(F)c(Oc2cccc(C(=O)N(C)C)c2)nc(Oc2cc(C(=N)N)ccc2NS(=O)(=O)C(F)(F)F)c1F |  |  | > 5000
Cc1c(F)c(Oc2cccc(C(=N)N)c2)nc(Oc2cccc(C(=O)N3CCN(C)CC3)c2)c1F |  |  | > 5000
COc1ccc(C(=N)N)c(OC)c1Oc1nc(Oc2cccc(N(C)C)c2)c(F)c(C)c1F |  |  | > 5000
CNC(=O)c1cccc(Oc2nc(Oc3cccc(C(=N)N)c3)c(F)c(C)c2F)c1 |  |  | 1200
Cc1c(F)c(Oc2cccc(C(=O)N(C)C)c2)nc(Oc2cccc(C(=N)N)c2O)c1F | > 5000 | > 5000 | > 5000
COc1cc(Oc2nc(Oc3cccc(C(=O)N(C)C)c3)c(F)c(C)c2F)cc(C(=N)N)c1 |  |  | 2700
Cc1c(F)c(Oc2cccc(C(=N)N)c2)nc(Oc2cccc(C(=O)N3CCOCC3)c2)c1F | > 5000 | > 5000 | 1400
Cc1ccc(C(=N)N)cc1Oc1nc(Oc2cccc(N(C)C)c2)c(F)c(C)c1F |  |  | 1200
Cc1c(F)c(Oc2cccc(C(=N)N)c2)nc(Oc2cccc(C(=O)C(C)C)c2)c1F | 3800 | > 5000 | 2100
Cc1c(F)c(Oc2cccc(CC(=O)O)c2)nc(Oc2cccc(C(=N)N)c2)c1F | > 5000 | > 5000 | > 5000

Compound | Ki (Serine protease 1) [nM] | Ki (Prothrombin) [nM] | Ki (Coagulation factor X) [nM]
Cc1c(F)c(Oc2cccc(C(=N)N)c2)nc(Oc2cc(C(=O)N(C)C)cc(O)c2O)c1F | 3400 | > 5000 | > 5000
COc1ccc(N(C)C)cc1Oc1nc(Oc2cccc(C(=N)N)c2)c(F)c(C)c1F | > 5000 | 2200 | > 5000
Cc1c(F)c(Oc2cccc(C(=N)N)c2)nc(Oc2cccc([N+](=O)[O-])c2)c1F | > 5000 | > 5000 | 2500
CC(=O)c1cccc(Oc2nc(Oc3cccc(C(=N)N)c3)c(F)c(C)c2F)c1 |  | > 5000 | 1400
CC(=O)Nc1cccc(Oc2nc(Oc3cccc(C(=N)N)c3)c(F)c(C)c2F)c1 |  |  | 5800
Cc1ccc(C(=O)N(C)C)cc1Oc1nc(Oc2cccc(C(=N)N)c2)c(F)c(C)c1F |  |  | > 5000
Cc1c(F)c(Oc2cccc(Nc3ccccc3)c2)nc(Oc2cccc(C(=N)N)c2)c1F | > 5000 | 3800 | 1800
Cc1c(F)c(Oc2cccc(C(=N)N)c2)nc(Oc2cccc(C(F)(F)F)c2)c1F |  | > 5000 | 1600
COc1ccc(Oc2nc(Oc3cccc(C(=N)N)c3)c(F)c(C)c2F)cc1C(=O)N(C)C | 450 | 3000 | 1400
Cc1c(F)c(Oc2cccc(CO)c2)nc(Oc2cccc(C(=N)N)c2)c1F |  |  | 1300
Cc1c(F)c(Oc2cccc(O)c2)nc(Oc2cccc(C(=N)N)c2)c1F |  |  | 5000
Cc1c(F)c(Oc2cccc(C(=N)N)c2)nc(Oc2cc(C(=O)N(C)C)ccc2O)c1F | 3700 | > 5000 | > 5000
Cc1c(F)c(Oc2cccc(N)c2)nc(Oc2cccc(C(=N)N)c2)c1F | > 5000 | > 5000 | 3300
Cc1c(F)c(Oc2cccc(CN)c2)nc(Oc2cccc(C(=N)N)c2)c1F | 2900 | > 5000 | 1400
CCOC(=O)c1ccc(N(C)C)cc1Oc1nc(Oc2cccc(C(=N)N)c2)c(F)c(C)c1F | > 5000 | > 5000 | > 5000
Cc1c(F)c(Oc2cccc(F)c2)nc(Oc2cccc(C(=N)N)c2)c1F |  |  | 3200
Cc1c(F)c(Oc2cccc(C(=N)N)c2)nc(Oc2ccc(O)c(C(=O)N(C)C)c2)c1F |  |  | 2000
COc1ccc(C(=O)N(C)C)cc1Oc1nc(Oc2cccc(C(=N)N)c2)c(F)c(C)c1F | 2100 | > 5000 | > 5000
COc1c(Oc2nc(Oc3cccc(C(=N)N)c3)c(F)c(C)c2F)cccc1C(=O)N(C)C |  |  | 2400
Cc1c(F)c(Oc2cccc(Cl)c2)nc(Oc2cccc(C(=N)N)c2)c1F |  | > 5000 | 1700
Cc1c(F)c(Oc2cccc(OC(F)(F)F)c2)nc(Oc2cccc(C(=N)N)c2)c1F | > 5000 | > 5000 | 1800
Cc1c(F)c(Oc2cccc(NC(N)=O)c2)nc(Oc2cccc(C(=N)N)c2)c1F | > 5000 | > 5000 | 4000

Other lines, results leading:

Ki (Serine protease 1) [nM] | Ki (Prothrombin) [nM] | Ki (Coagulation factor X) [nM] | Compound
4800 | > 5000 | 125 | Cc1c(F)c(Oc2cccc(C(=N)N)c2)nc(Oc2cccc(-n3ccnc3)c2)c1F
> 5000 | > 5000 | 180 | COc1cc(C(=N)N)cc(Oc2nc(Oc3cccc(C(=O)N(C)C)c3)c(F)c(C)c2F)c1OC
580 | 680 | 8 | Cc1nccn1-c1cccc(Oc2cc(C(=O)O)cc(Oc3cc(C(=N)N)ccc3O)n2)c1
 |  | 720 | COc1ccc(C(=N)N)cc1Oc1nc(Oc2cccc(C(=O)N(C)C)c2)c(F)c(C)c1F
730 | > 5000 | 263 | CN(C)C(=O)c1cccc(Oc2cc(C(=O)O)cc(Oc3cccc(C(=N)N)c3)n2)c1
750 | > 5000 | 140 | COc1cc(Oc2nc(Oc3cccc(C(=N)N)c3)c(F)c(C)c2F)cc(C(=O)N(C)C)c1
2100 | 730 | 400 | CCN(CC)c1cccc(Oc2nc(Oc3cccc(C(=N)N)c3)c(F)c(C)c2F)c1
 |  | 370 | Cc1c(F)c(Oc2cccc(C(=N)N)c2)nc(Oc2cccc(C(O)C(N)=O)c2)c1F (stereo not drawn)
 |  | 1.8 | Cc1c(F)c(Oc2cccc(C(=O)N(C)C)c2)nc(Oc2cc(C(=N)N)ccc2O)c1F
350 | 3400 | 78 | N=C(N)c1ccc(O)c(Oc2cc(C(=O)O)cc(Oc3cccc(NCCN)c3)n2)c1
> 5000 |  | 700 | Cc1c(F)c(Oc2cccc(CCC(N)=O)c2)nc(Oc2cccc(C(=N)N)c2)c1F
1600 | > 5000 | 160 | Cc1c(F)c(Oc2cccc(C(=N)N)c2)nc(Oc2cc(C(=O)N(C)C)cc(C(=O)N(C)C)c2)c1F
2000 | > 5000 | 650 | Cc1c(F)c(Oc2cccc(C(=N)N)c2)nc(Oc2cccc(N3CCOCC3)c2)c1F
 |  | 690 | CCN(CC)C(=O)c1cccc(Oc2nc(Oc3cccc(C(=N)N)c3)c(F)c(C)c2F)c1
470 | 880 | 8.4 | Cc1cn(C)c(-c2cccc(Oc3cc(C(=O)O)cc(Oc4cc(C(=N)N)ccc4O)n3)c2)n1
> 5000 | > 5000 | 810 | CCOC(=O)Cc1cccc(Oc2nc(Oc3cccc(C(=N)N)c3)c(F)c(C)c2F)c1
> 5000 | > 5000 | 280 | Cc1c(F)c(Oc2cccc(CC(N)=O)c2)nc(Oc2cccc(C(=N)N)c2)c1F
4200 | > 5000 | 460 | Cc1c(F)c(Oc2cccc(CC(=O)N(C)C)c2)nc(Oc2cccc(C(=N)N)c2)c1F
1400 | > 5000 | 810 | CC1(C)CNC(c2cccc(Oc3cc(C(=O)O)cc(Oc4cc(C(=N)N)ccc4O)n3)c2)=N1
1100 | 1200 | 23 | Cc1c(F)c(Oc2cccc(C(=O)N(C)C)c2)nc(Oc2cc(C(=N)N)cc(O)c2O)c1F
2400 | > 5000 | 720 | Cc1c(F)c(Oc2cccc(C(=N)N)c2)nc(Oc2cccc([S+]([O-])N(C)C)c2)c1F (stereo not drawn)
1000 | 190 | 3 | Cc1c(F)c(Oc2cccc(N(C)C)c2)nc(Oc2cc(C(=N)N)ccc2O)c1F
2700 | > 5000 | 530 | CCNc1cccc(Oc2nc(Oc3cccc(C(=N)N)c3)c(F)c(C)c2F)c1
> 5000 | > 5000 | 160 | COc1c(O)cc(C(=N)N)cc1Oc1nc(Oc2cccc(C(=O)N(C)C)c2)c(F)c(C)c1F
400 | 300 | 64 | Cc1c(F)c(Oc2cccc(N(C)C)c2)nc(Oc2cc(C(=N)N)ccc2N)c1F
5000 | 950 | 320 | Cc1c(Oc2nc(Oc3cccc(C(=N)N)c3)c(F)c(C)c2F)cccc1N(C)C
750 | 120 | 12 | CN(C)c1cccc(Oc2cc(C(=O)O)cc(Oc3cc(C(=N)N)ccc3O)n2)c1
